As usually defined, the EC50 is the concentration giving half of the maximal effect.

In the first assay the test system is HBV rcDNA. The assay can be described thus: HepDE19 assay with bDNA quantitation of HBV rcDNA. As to conditions: HepDE19 assay, inhibition of formation of rcDNA; read-out: DE-19bDNA EC50. It counts as cell-based, hepatitis B virus. In outline: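 Compounds, top concentration 25 μM in 8-point duplicate series, were applied to Tet-free HepDE19 cultures for 7 days. Branched-DNA quantitation of HBV rcDNA against untreated wells gave EC50 and EC90 by 4-parameter fit. Viability (CC50) came from ATP luminescence on parallel plates incubated 4 days.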
Turning to `CCN(C(=O)Nc1ccc(F)c(Cl)c1)C(c1ccccc1)c1cnc(OC)c2ccccc12` (single isomer, unassigned) [Compound 60, 3-(3-Chloro-4-fluorophenyl)-1-ethyl-1-((1-methoxyisoquinolin-4-yl)(phenyl)methyl)urea], the EC50 is 8.8 µM.

On to `CC(c1c[nH]c(=O)c2cnccc12)N(CCCO)C(=O)Nc1ccc(F)c(Cl)c1` (single isomer, unassigned) [Compound 252, 3-(3-Chloro-4-fluorophenyl)-1-(3-hydroxypropyl)-1-(1-(1-oxo-1,2-dihydro-2,7-naphthyridin-4-yl)ethyl)urea], for which the EC50 was 0.052 µM.

With `CC(c1c[nH]c(=O)c2ccccc12)N(CC1COC(C)(C)OC1)C(=O)Nc1ccc(F)c(Cl)c1` (single isomer, unassigned) [Compound 273, 3-(3-Chloro-4-fluorophenyl)-1-((2,2-dimethyl-1,3-dioxan-5-yl)methyl)-1-(1-(1-oxo-1,2-dihydroisoquinolin-4-yl)ethyl)urea], the EC50 was found to be 0.17 µM. The same measure, in the same setting: the figure for `CC(c1cnc(OCc2ncn(C)n2)c2ccccc12)N(CCCO)C(=O)Nc1ccc(F)c(Cl)c1` (single isomer, unassigned) [Compound 256, 3-(3-Chloro-4-fluorophenyl)-1-(3-hydroxypropyl)-1-(1-(1-((1-methyl-1H-1,2,4-triazol-3-yl)methoxy)isoquinolin-4-yl)ethyl)urea] is 0.013 µM; for `CC(c1c[nH]c(=O)c2ccccc12)N(CC1COC(C)(C)OC1)C(=O)Nc1ccc(F)c(Cl)c1` (single isomer, unassigned) [Compound 272, 3-(3-Chloro-4-fluorophenyl)-1-((2,2-dimethyl-1,3-dioxan-5-yl)methyl)-1-(1-(1-oxo-1,2-dihydroisoquinolin-4-yl)ethyl)urea] it is 1.8 µM. Consider `CC(c1cnc(OCc2ncn(C)n2)c2ccccc12)N(C)C(=O)Nc1ccc(F)c(Cl)c1` (single isomer, unassigned) [Compound 133, 3-(3-Chloro-4-fluorophenyl)-1-methyl-1-(1-(1-((1-methyl-1H-1,2,4-triazol-3-yl)methoxy)isoquinolin-4-yl)ethyl)urea], for which the EC50 worked out at 5.9 µM.

With `COCCOCCN(C(=O)Nc1ccc(F)c(Cl)c1)C(C)c1cnc(OC)c2ccccc12` (single isomer, unassigned) [Compound 121, 3-(3-Chloro-4-fluorophenyl)-1-(2-(2-methoxyethoxy)ethyl)-1-(1-(1-methoxyisoquinolin-4-yl)ethyl)urea], the EC50 was 23 µM. Regarding `CCN(C(=O)Nc1ccc(F)c(Cl)c1)C(c1cnc(OC)c2ccccc12)C1CC1` (single isomer, unassigned) [Compound 40, 3-(3-Chloro-4-fluorophenyl)-1-(cyclopropyl(1-methoxyisoquinolin-4-yl)methyl)-1-ethylurea], the EC50 came out at 20 µM.

On to `CNc1ncc(C(C)N(C)C(=O)Nc2ccc(F)c(Cl)c2)c2ccccc12` (single isomer, unassigned) [Compound 232, 3-(3-Chloro-4-fluorophenyl)-1-methyl-1-(1-(1-(methylamino)isoquinolin-4-yl)ethyl)urea], for which the concentration giving a half-maximal response (EC50) stood at 0.12 µM. Same read-out and setting: then `CC(c1c[nH]c(=O)c2ccccc12)N(CC1CC1)C(=O)Nc1ccc(F)c(Cl)c1` (single isomer, unassigned) [Compound 86, 3-(3-Chloro-4-fluorophenyl)-1-(cyclopropylmethyl)-1-(1-(1-oxo-1,2-dihydroisoquinolin-4-yl)ethyl)urea], with 0.02 µM.

Still in this assay, the particulars now being: HepDE19 assay, inhibition of formation of relaxed circular DNA (rcDNA), bDNA quantitation; read-out: DE-19bDNA EC50.
As to `CC(c1cnc(CO)c2ccccc12)N(C)C(=O)Nc1ccc(F)c(Cl)c1` (single isomer, unassigned) [Compound 326, 3-(3-Chloro-4-fluorophenyl)-1-(1-(1-(hydroxymethyl)isoquinolin-4-yl)ethyl)-1-methylurea], the EC50 worked out at 16 µM. Same read-out and setting: the figure for `CC(c1cn(C)c(=O)c2cc(F)c(F)cc12)N(C)C(=O)Nc1ccc(F)c(Cl)c1` (single isomer, unassigned) [Compound 340, 3-(3-Chloro-4-fluorophenyl)-1-(1-(6,7-difluoro-2-methyl-1-oxo-1,2-dihydroisoquinolin-4-yl)ethyl)-1-methylurea] is 4.6 µM.

For `CC(C)CN(C(=O)Nc1ccc(F)c(Cl)c1)C(C)c1cn(C)c(=O)c2cc(F)c(F)cc12` (single isomer, unassigned) [Compound 342, 3-(3-Chloro-4-fluorophenyl)-1-(1-(6,7-difluoro-2-methyl-1-oxo-1,2-dihydroisoquinolin-4-yl)ethyl)-1-isobutylurea], the EC50 amounted to 0.62 µM. The same measure, in the same setting: then `Cc1cc(NC(=O)N(C)C(C)c2c[nH]c(=O)c3cc(F)c(F)cc23)ccc1F` (single isomer, unassigned) [Compound 427, 1-(1-(6,7-Difluoro-1-oxo-1,2-dihydroisoquinolin-4-yl)ethyl)-3-(4-fluoro-3-methylphenyl)-1-methylurea], with 0.007 µM. The same measure, in the same setting: then `CCN(C(=O)Nc1ccc(F)cc1)C(C)c1c[nH]c(=O)c2cc(F)c(F)cc12` (single isomer, unassigned) [Compound 402, 1-(1-(6,7-Difluoro-1-oxo-1,2-dihydroisoquinolin-4-yl)ethyl)-1-ethyl-3-(4-fluorophenyl)urea], with 10 µM; and `CC(c1c[nH]c(=O)c2ccccc12)N(Cc1nccs1)C(=O)Nc1ccc(F)c(Cl)c1` (single isomer, unassigned) [Compound 311, 3-(3-Chloro-4-fluorophenyl)-1-(1-(1-oxo-1,2-dihydroisoquinolin-4-yl)ethyl)-1-(thiazol-2-ylmethyl)urea], with 0.066 µM. As for `CC(c1cnc(S(C)(=O)=O)c2ccccc12)N(C)C(=O)Nc1ccc(F)c(Cl)c1` (single isomer, unassigned) [Compound 314, 3-(3-Chloro-4-fluorophenyl)-1-methyl-1-(1-(1-(methylsulfonyl)isoquinolin-4-yl)ethyl)urea], the half-maximal effective concentration (EC50) worked out at 8.3 µM.

`CC(c1c[nH]c(=O)c2c(F)c(F)ccc12)N(C)C(=O)Nc1ccc(F)c(F)c1` (single isomer, unassigned) [Compound 435, 1-(1-(7,8-Difluoro-1-oxo-1,2-dihydroisoquinolin-4-yl)ethyl)-3-(3,4-difluorophenyl)-1-methylurea]: the EC50 came out at 0.24 µM. On the same count and under the same terms, the figure for `CC(c1c[nH]c(=O)c2c(F)c(F)ccc12)N(C)C(=O)Nc1cc(Cl)c(F)c(Cl)c1` (single isomer, unassigned) [Compound 452, 3-(3,5-Dichloro-4-fluorophenyl)-1-(1-(7,8-difluoro-1-oxo-1,2-dihydroisoquinolin-4-yl)ethyl)-1-methylurea] is 0.047 µM.

Staying with this assay, now noted: Hepatitis B virus, HepDE19, HepDE19 assay, inhibition of formation of rcDNA; read-out: DE-19bDNA EC50.
Consider `Cc1cc(NC(=O)NCc2c[nH]c(=O)c3ccccc23)ccc1F` [Compound 4, 1-(4-Fluoro-3-methylphenyl)-3-((1-oxo-1,2-dihydroisoquinolin-4-yl)methyl)urea], for which the EC50 came out at 4.8 µM. `CC(c1cn(CCO)c(=O)c2ccccc12)N(C)C(=O)Nc1ccc(F)c(Cl)c1` (single isomer, unassigned) [Compound 205, 3-(3-Chloro-4-fluorophenyl)-1-(1-(2-(2-hydroxyethyl)-1-oxo-1,2-dihydroisoquinolin-4-yl)ethyl)-1-methylurea]: the EC50 was 0.16 µM. Take `CC(c1c[nH]c(=O)c2nccnc12)N(C)C(=O)Nc1ccc(F)c(Cl)c1` (racemic) [Compound 148, 3-(3-chloro-4-fluorophenyl)-1-methyl-1-(1-(5-oxo-5,6-dihydropyrido[3,4-b]pyrazin-8-yl)ethyl)urea]: the EC50 was determined as 15 µM. Regarding `CCCN(Cc1cnc(OC)c2ccccc12)C(=O)Nc1ccc(F)c(Cl)c1` [Compound 20, 3-(3-Chloro-4-fluorophenyl)-1-((1-methoxyisoquinolin-4-yl)methyl)-1-propylurea], the EC50 turned out to be 0.44 µM. As to `CC(c1c[nH]c(=O)c2ccccc12)N(C)C(=O)Nc1ccc(F)c(Cl)c1` (racemic) [Compound 12, 3-(3-Chloro-4-fluorophenyl)-1-methyl-1-(1-(1-oxo-1,2-dihydroisoquinolin-4-yl)ethyl)urea], the EC50 turned out to be 0.16 µM. For `COc1ncc(C(C)N(C)C(=O)Nc2ccc(F)c(Cl)c2)c2ccccc12` (single isomer, unassigned) [Compound 30, 3-(3-chloro-4-fluorophenyl)-1-(1-(1-methoxyisoquinolin-4-yl)ethyl)-1-methylurea], the EC50 is 0.56 µM. On the same count and under the same terms, then `CN(Cc1cnc(OCc2ncn(C)n2)c2ccccc12)C(=O)Nc1ccc(F)c(Cl)c1` [Compound 87, 3-(3-Chloro-4-fluorophenyl)-1-methyl-1-((1-((1-methyl-1H-1,2,4-triazol-3-yl)methoxy)isoquinolin-4-yl)methyl)urea], with 0.47 µM.

Still in this assay, the particulars now being: Hepatitis B virus, HepDE19, HepDE19 assay, inhibition of formation of relaxed circular DNA (rcDNA), bDNA quantitation; read-out: DE-19bDNA EC50.
For `CNC(=O)N(C)C(C)c1c[nH]c(=O)c2ccccc12` (single isomer, unassigned) [Compound 298, 1,3-Dimethyl-1-(1-(1-oxo-1,2-dihydroisoquinolin-4-yl)ethyl)urea], the EC50 turned out to be 24 µM.

Turning to `CC(c1c[nH]c(=O)c2ccccc12)N(Cc1cncnc1)C(=O)Nc1ccc(F)c(Cl)c1` (single isomer, unassigned) [Compound 320, 3-(3-Chloro-4-fluorophenyl)-1-(1-(1-oxo-1,2-dihydroisoquinolin-4-yl)ethyl)-1-(pyrimidin-5-ylmethyl)urea], the EC50 came to 13 µM.

Staying with this assay, now noted: Hepatitis B virus, HepDE19, read-out: DE-19bDNA EC50 (μM), HepDE19 assay, inhibition of formation of rcDNA.
With `C[C@H](c1c[nH]c(=O)c2ccccc12)N(C)C(=O)Nc1ccnc(Cl)c1` [Compound 94, (R)-3-(2-Chloropyridin-4-yl)-1-methyl-1-(1-(1-oxo-1,2-dihydroisoquinolin-4-yl)ethyl)urea], the EC50 stood at 1 µM.
